Measured values published in ChEMBL document CHEMBL6087461, “Cell-Permeable Peptide Inhibitors of the p53-hDM2 Interaction via Foldamer Helix Mimicry and Bis-Thioether Stapling” (J Med Chem, 2025).
Activity calls are given as the source filed them. No cut-off for these calls is given here. Starred links: 1 amine or outer side, 2 acyl side, 3 side chain; linkers in the order of their positions; H or OH if unused. Positions of bridges follow the written chain, without caps; N, C: chain ends. Residues, ends and D or L forms follow the SMILES beside them. *: point of attachment. X2 = CC(C)[C@@H](CNC(N)=O)NC(=O)NC[C@H](C)NC(=O)NC[C@H](CSCC(=O)NCCNC(=O)C[*:1])N[*:2]; X1 = CC(C)[C@@H](CNC(N)=O)NC(=O)NC[C@H](C)NC(=O)NC[C@H](CSCCCCCC[*:1])N[*:2]; X6 = CC(C)[C@@H](CNC(N)=O)NC(=O)NC[C@H](CSCCCCCC[*:1])NC(=O)NC[C@H](C)N[*:2]; X5 = CC(C)[C@@H](CNC(N)=O)NC(=O)NC[C@H](C)NC(=O)NC[C@H](CSCCC[*:1])N[*:2]; X3 = CC(C)[C@@H](CNC(N)=O)NC(=O)NC[C@H](C)NC(=O)NC[C@H](C)N*; NH(CH2CH2O)2(CH2)6Cl = ClCCCCCCOCCOCCN*; Suc = O=C(CCC(=O)[*:2])[*:1]; X4 = C(C[*:1])C[*:2]

What was measured:
[1] = PROTAC activity at human DM2/p53 extracted from Escherichia coli interaction by measuring inhibition of interaction by time-resolved fluorescence energy transfer (TRFRET) detection method
[2] = target: Tumour suppressor p53/oncoprotein Mdm2 (Homo sapiens) (UniProt P04637+Q00987); experiment: PROTAC activity at human MDM2/p53 extracted from Escherichia coli interaction by measuring inhibition of interaction at 100 nM by time-resolved fluorescence energy transfer (TRFRET) detection method relative to control; assay type: protein assay
Tumour suppressor p53/oncoprotein Mdm2 (Homo sapiens), sequence (P04637 whole entry, looked up): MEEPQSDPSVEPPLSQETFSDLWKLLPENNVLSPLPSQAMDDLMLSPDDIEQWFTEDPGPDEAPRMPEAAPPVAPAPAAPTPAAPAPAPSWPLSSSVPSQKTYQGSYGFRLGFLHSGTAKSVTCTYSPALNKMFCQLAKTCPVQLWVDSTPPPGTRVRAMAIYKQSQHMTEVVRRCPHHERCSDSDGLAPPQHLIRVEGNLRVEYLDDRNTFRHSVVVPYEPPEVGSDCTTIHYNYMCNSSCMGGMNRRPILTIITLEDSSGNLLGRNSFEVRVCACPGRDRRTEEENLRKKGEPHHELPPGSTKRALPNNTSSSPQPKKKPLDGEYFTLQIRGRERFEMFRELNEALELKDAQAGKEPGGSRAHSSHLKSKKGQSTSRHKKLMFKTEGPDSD
Tumour suppressor p53/oncoprotein Mdm2 (Homo sapiens), sequence (Q00987 whole entry, looked up): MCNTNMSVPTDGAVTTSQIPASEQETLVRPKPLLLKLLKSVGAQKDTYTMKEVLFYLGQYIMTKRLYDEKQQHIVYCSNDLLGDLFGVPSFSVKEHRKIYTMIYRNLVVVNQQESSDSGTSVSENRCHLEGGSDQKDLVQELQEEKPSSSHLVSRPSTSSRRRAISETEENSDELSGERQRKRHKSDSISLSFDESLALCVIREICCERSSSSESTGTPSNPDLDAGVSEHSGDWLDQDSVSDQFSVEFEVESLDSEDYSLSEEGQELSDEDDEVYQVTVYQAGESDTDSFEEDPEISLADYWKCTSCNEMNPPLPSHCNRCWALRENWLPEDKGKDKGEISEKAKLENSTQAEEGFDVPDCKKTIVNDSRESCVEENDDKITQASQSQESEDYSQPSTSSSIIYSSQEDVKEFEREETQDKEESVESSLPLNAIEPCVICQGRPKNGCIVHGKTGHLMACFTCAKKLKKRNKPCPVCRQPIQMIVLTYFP

[3] = target: Tumour suppressor protein p53/Mdm4 (Homo sapiens, UniProt O15151); experiment: PROTAC activity at human DMX/p53 extracted from Escherichia coli interaction by measuring inhibition of interaction by time-resolved fluorescence energy transfer (TRFRET) detection method; assay type: protein assay
Tumour suppressor protein p53/Mdm4, sequence (P04637 whole entry): as the sequence (P04637 whole entry, looked up) above
Tumour suppressor protein p53/Mdm4, sequence (O15151 whole entry): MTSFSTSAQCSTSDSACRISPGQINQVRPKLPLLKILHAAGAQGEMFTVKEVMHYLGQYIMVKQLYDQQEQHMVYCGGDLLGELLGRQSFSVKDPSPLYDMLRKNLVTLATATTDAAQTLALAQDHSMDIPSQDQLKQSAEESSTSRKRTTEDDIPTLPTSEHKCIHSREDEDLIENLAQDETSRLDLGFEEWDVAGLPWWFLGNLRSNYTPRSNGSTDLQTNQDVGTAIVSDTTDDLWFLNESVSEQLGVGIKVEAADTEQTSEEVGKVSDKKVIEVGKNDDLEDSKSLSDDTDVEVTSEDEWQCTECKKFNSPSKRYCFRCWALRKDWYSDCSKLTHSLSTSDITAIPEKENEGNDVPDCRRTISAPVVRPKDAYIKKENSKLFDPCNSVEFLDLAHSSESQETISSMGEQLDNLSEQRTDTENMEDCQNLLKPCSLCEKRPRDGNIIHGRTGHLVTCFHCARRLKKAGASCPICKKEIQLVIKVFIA

MCF7 = experiment: Cytotoxicity against human MCF7 cells expressing wild type p53 and overexpressing human DMX assessed as cell viability measured after 72 hrs incubation by MTS cell viability assay; assay type: functional, cell-based
HCT-116 [4] = experiment: Cytotoxicity against human HCT116 cells expressing wild type p53 and overexpressing human DM2 assessed as cell viability measured after 72 hrs incubation by MTS cell viability assay; assay type: functional, cell-based
[5] = target: Tumour suppressor protein p53/Mdm4 (Homo sapiens) (UniProt P04637+O15151); experiment: PROTAC activity at human DMX/p53 extracted from Escherichia coli interaction at 100 nM by measuring inhibition of interaction by time-resolved fluorescence energy transfer (TRFRET) detection method relative to control; assay type: protein assay
Tumour suppressor protein p53/Mdm4 (Homo sapiens), sequence (O15151 whole entry, looked up): as the sequence (O15151 whole entry) above
Tumour suppressor protein p53/Mdm4 (Homo sapiens), sequence (P04637 whole entry, looked up): as the sequence (P04637 whole entry, looked up) above

SW480 = experiment: Cytotoxicity against human SW480 cells expressing […] assessed as cell viability at 0.1 to 40 uM measured after 72 hrs incubation by MTS cell viability assay; assay type: functional, cell-based; conditions: dose 0.1-40 µM
HCT-116 [6] = experiment: Cytotoxicity against human HCT-116 cells assessed as cell viability at 100 uM by MTS cell viability assay; assay type: functional, cell-based
[7] = Permeability in human HeLa cells transfected with Halo-GFP-Mito assessed as accumulation in cytosol measured after 4 hrs incubation by chloroalkane penetration assay; assay type: ADME, subcellular
HCT-116 [8] = experiment: Effect on increase in […] RNA level in human HCT-116 cells at 10 uM measured after 6 hrs by RT-qPCR analysis; assay type: functional, cell-based
HCT-116 [9] = experiment: Effect on increase in p21 RNA level in human HCT-116 cells at 10 uM measured after 6 hrs by RT-qPCR analysis; assay type: functional, cell-based

## CC(C)[C@@H](CNC(N)=O)NC(=O)NC[C@H](C)NC(=O)NC[C@@H]1CSCC(=O)NCCNC(=O)CSC[C@H](NC(=O)[C@H](Cc2ccccc2)NC(=O)[C@H](CO)NC(=O)[C@H](CCCCN)NC(=O)[C@H](CCCNC(=N)N)NC(=O)[C@H](CCCNC(=N)N)NC(=O)[C@@H](N)CCCNC(=N)N)C(=O)N[C@@H](CCC(=O)O)C(=O)N[C@@H](Cc2ccc(O)cc2)C(=O)N[C@@H](Cc2c[nH]c3ccccc23)C(=O)N1 (H-RRRKSFCEYW; linker 7-C via X2)
[1]
  IC50: 3.6 nM
[2]
  inhibition: 99%
[3]
  IC50: 10300 nM
MCF7
  Activity: inactive
HCT-116 [4]
  Activity: Not active; Compound Was Poorly Active Even At High Concentration
[5]
  inhibition: 98%

## CC(C)[C@@H](CNC(N)=O)NC(=O)NC[C@H](C)NC(=O)NC[C@H](C)NC(=O)[C@H](Cc1c[nH]c2ccccc12)NC(=O)[C@H](Cc1ccc(O)cc1)NC(=O)[C@H](CCC(=O)O)NC(=O)[C@H](C)NC(=O)[C@H](Cc1ccccc1)NC(=O)[C@H](CO)NC(=O)[C@@H](N)[C@@H](C)O (H-TSFAEYW-X3)
[1]
  IC50: 23.8 nM
[2]
  inhibition: 97%
[3]
  IC50: 82000 nM
[5]
  inhibition: 61%

## CC(C)[C@@H](CNC(N)=O)NC(=O)NC[C@H](C)NC(=O)NC[C@@H]1CSCCCCCCSC[C@H](NC(=O)[C@H](Cc2ccccc2)NC(=O)[C@H](CO)NC(=O)[C@@H](NC(=O)[C@H](CCCCN)NC(=O)[C@@H](N)CCCCN)[C@@H](C)O)C(=O)N[C@@H](CCC(=O)O)C(=O)N[C@@H](Cc2ccc(O)cc2)C(=O)N[C@@H](Cc2c[nH]c3ccccc23)C(=O)N1 (H-KKTSFCEYW; linker 6-C via X1)
[1]
  IC50: 10.2 nM
[2]
  inhibition: inactive
SW480
  Activity: Active
[3]
  IC50: 62700 nM
[5]
  Activity: inactive

## CC(C)[C@@H](CNC(N)=O)NC(=O)NC[C@@H]1CSCCCCCCSC[C@H](NC(=O)[C@H](C)NC(=O)[C@H](Cc2ccccc2)NC(=O)[C@H](CO)NC(=O)[C@@H](N)[C@@H](C)O)C(=O)N[C@@H](Cc2ccc(O)cc2)C(=O)N[C@@H](Cc2c[nH]c3ccccc23)C(=O)N[C@@H](C)CNC(=O)N1 (H-TSFACYW; linker 5-C via X6)
[1]
  IC50: 33.1 nM
[2]
  inhibition: 86%
[3]
  IC50: 196000 nM
[5]
  inhibition: 11%

## CC(C)[C@@H](CNC(N)=O)NC(=O)NC[C@H](C)NC(=O)NC[C@@H]1CSCC(=O)NCCNC(=O)CSC[C@H](NC(=O)[C@H](Cc2ccccc2)NC(=O)[C@H](CO)NC(=O)[C@@H](N)[C@@H](C)O)C(=O)N[C@@H](CCC(=O)O)C(=O)N[C@@H](Cc2ccc(O)cc2)C(=O)N[C@@H](Cc2c[nH]c3ccccc23)C(=O)N1 (H-TSFCEYW; linker 4-C via X2)
HCT-116 [6]
  Activity: inactive
[1]
  IC50: 10.1 nM
[2]
  inhibition: 99%
[3]
  IC50: 28000 nM
[5]
  inhibition: 91%

## CC(C)[C@@H](CNC(N)=O)NC(=O)NC[C@H](C)NC(=O)NC[C@@H]1CSCCCCCCSC[C@H](NC(=O)[C@H](Cc2ccccc2)NC(=O)[C@H](CO)NC(=O)[C@H](CCCCN)NC(=O)[C@H](CCCNC(=N)N)NC(=O)[C@H](CCCNC(=N)N)NC(=O)[C@H](CCCNC(=N)N)NC(=O)CCC(=O)NCCOCCOCCCCCCCl)C(=O)N[C@@H](CCC(=O)O)C(=O)N[C@@H](Cc2ccc(O)cc2)C(=O)N[C@@H](Cc2c[nH]c3ccccc23)C(=O)N1 ({NH(CH2CH2O)2(CH2)6Cl-Suc}-RRRKSFCEYW; linker 7-C via X1)
[7]
  EC50: 1900 nM

## CC(C)[C@@H](CNC(N)=O)NC(=O)NC[C@H](C)NC(=O)NC[C@H](C)NC(=O)[C@H](Cc1c[nH]c2ccccc12)NC(=O)[C@H](Cc1ccc(O)cc1)NC(=O)[C@@H]1CSCCCSC[C@H](NC(=O)[C@@H](N)[C@@H](C)O)C(=O)N[C@@H](Cc2ccccc2)C(=O)N[C@@H](C)C(=O)N1 (H-TCFACYW-X3; linker 2-5 via X4)
[1]
  IC50: 109 nM
[2]
  inhibition: 41%
[3]
  IC50: 763000 nM
[5]
  inhibition: 20%

## CC(C)[C@@H](CNC(N)=O)NC(=O)NC[C@H](C)NC(=O)NC[C@@H]1CSCCCSC[C@H](NC(=O)[C@H](Cc2ccccc2)NC(=O)[C@H](CO)NC(=O)[C@@H](N)[C@@H](C)O)C(=O)N[C@@H](CCC(=O)O)C(=O)N[C@@H](Cc2ccc(O)cc2)C(=O)N[C@@H](Cc2c[nH]c3ccccc23)C(=O)N1 (H-TSFCEYW; linker 4-C via X5)
[1]
  IC50: 25.6 nM
[2]
  inhibition: 86%
[3]
  IC50: 108000 nM
[5]
  inhibition: 50%

## CC(C)[C@@H](CNC(N)=O)NC(=O)NC[C@H](C)NC(=O)NC[C@@H]1CSCC(=O)NCCNC(=O)CSC[C@H](NC(=O)[C@H](Cc2ccccc2)NC(=O)[C@H](CO)NC(=O)[C@H](CCCCN)NC(=O)[C@H](CCCNC(=N)N)NC(=O)[C@H](CCCNC(=N)N)NC(=O)[C@H](CCCNC(=N)N)NC(=O)CCC(=O)NCCOCCOCCCCCCCl)C(=O)N[C@@H](CCC(=O)O)C(=O)N[C@@H](Cc2ccc(O)cc2)C(=O)N[C@@H](Cc2c[nH]c3ccccc23)C(=O)N1 ({NH(CH2CH2O)2(CH2)6Cl-Suc}-RRRKSFCEYW; linker 7-C via X2)
[7]
  EC50: 3300 nM

## CC(C)[C@@H](CNC(N)=O)NC(=O)NC[C@H](C)NC(=O)NC[C@H](C)NC(=O)[C@H](Cc1c[nH]c2ccccc12)NC(=O)[C@H](Cc1ccc(O)cc1)NC(=O)[C@H](CCC(=O)O)NC(=O)[C@H](C)NC(=O)[C@H](Cc1ccccc1)NC(=O)[C@@H](NC(=O)[C@H](CCCCN)NC(=O)CCC(=O)NCCOCCOCCCCCCCl)[C@@H](C)O ({NH(CH2CH2O)2(CH2)6Cl-Suc}-KTFAEYW-X3)
[7]
  EC50: 1950 nM

## N[C@@H](Cc1c[nH]c2ccccc12)C(=O)O [TRYPTOPHAN]
[7]
  EC50: 87 nM

## COc1ccc(C2=N[C@@H](c3ccc(Cl)cc3)[C@@H](c3ccc(Cl)cc3)N2C(=O)N2CCNC(=O)C2)c(OC(C)C)c1
HCT-116 [8]
  Activity: Active
HCT-116 [9]
  Activity: Active

## CC(C)[C@@H](CNC(N)=O)NC(=O)NC[C@H](C)NC(=O)NC[C@@H]1CSCCCCCCSC[C@H](NC(=O)[C@H](Cc2ccccc2)NC(=O)[C@H](CO)NC(=O)[C@@H](N)[C@@H](C)O)C(=O)N[C@@H](CCC(=O)O)C(=O)N[C@@H](Cc2ccc(O)cc2)C(=O)N[C@@H](Cc2c[nH]c3ccccc23)C(=O)N1 (H-TSFCEYW; linker 4-C via X1)
HCT-116 [6]
  Activity: inactive
[1]
  IC50: 19.3 nM
[2]
  inhibition: 97%
[3]
  IC50: 127000 nM
MCF7
  Activity: inactive
HCT-116 [4]
  Activity: inactive
[5]
  inhibition: 52%

## CC(C)[C@@H](CNC(N)=O)NC(=O)NC[C@H](C)NC(=O)NC[C@@H]1CSCCCCCCSC[C@H](NC(=O)[C@H](Cc2ccccc2)NC(=O)[C@@H](NC(=O)[C@H](CCCCN)NC(=O)CCC(=O)NCCOCCOCCCCCCCl)[C@@H](C)O)C(=O)N[C@@H](CCC(=O)O)C(=O)N[C@@H](Cc2ccc(O)cc2)C(=O)N[C@@H](Cc2c[nH]c3ccccc23)C(=O)N1 ({NH(CH2CH2O)2(CH2)6Cl-Suc}-KTFCEYW; linker 4-C via X1)
[7]
  EC50: 510 nM

## CC(C)[C@@H](CNC(N)=O)NC(=O)NC[C@H](C)NC(=O)NC[C@H](C)NC(=O)[C@H](Cc1c[nH]c2ccccc12)NC(=O)[C@H](Cc1ccc(O)cc1)NC(=O)[C@@H]1CSCCCSC[C@H](N)C(=O)N[C@@H](CO)C(=O)N[C@@H](Cc2ccccc2)C(=O)N[C@@H](C)C(=O)N1 (H-CSFACYW-X3; linker 1-5 via X4)
[1]
  IC50: 23.4 nM
[2]
  inhibition: 98%
[3]
  IC50: 80000 nM
[5]
  inhibition: 68%
